In one assay the test system is cholesterol absorption. In words: Inhibition of cholesterol absorption in rats fed 1% cholesterol:0.5% cholic acid diet. It counts as in vivo, male Sprague-Dawley rats. Particulars: po, 336 h, rat, 2 weeks; for response vs control in vivo at 0.03 %: dose .03% of the diet; for response vs control in vivo at 0.01 %: dose .01% of the diet. The gist of the method:
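Male Sprague-Dawley rats (150-170 g) fed 1% cholesterol:0.5% cholic acid diet for 2 weeks with compound at 0.001, 0.003, 0.01 or 0.03% of diet. Serum cholesterol measured enzymatically; liver cholesterol from saponified large-lobe sample after petroleum ether extraction. Liver and serum sterol expressed as percent of untreated controls.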

For assay [1], the target named is T1, fatty acyl CoA: cholesterol acyl transferase (ACAT) (Rattus norvegicus, UniProt O70536).
T1 construct: The supernatant, containing the microsomal fraction, served as the source of the cholesterol-esterifying enzyme; from tissue; host or cells: rat adrenals, supernatant of 1,000 x g centrifugation containing the microsomal fraction
T1 sequence (O70536 1-545): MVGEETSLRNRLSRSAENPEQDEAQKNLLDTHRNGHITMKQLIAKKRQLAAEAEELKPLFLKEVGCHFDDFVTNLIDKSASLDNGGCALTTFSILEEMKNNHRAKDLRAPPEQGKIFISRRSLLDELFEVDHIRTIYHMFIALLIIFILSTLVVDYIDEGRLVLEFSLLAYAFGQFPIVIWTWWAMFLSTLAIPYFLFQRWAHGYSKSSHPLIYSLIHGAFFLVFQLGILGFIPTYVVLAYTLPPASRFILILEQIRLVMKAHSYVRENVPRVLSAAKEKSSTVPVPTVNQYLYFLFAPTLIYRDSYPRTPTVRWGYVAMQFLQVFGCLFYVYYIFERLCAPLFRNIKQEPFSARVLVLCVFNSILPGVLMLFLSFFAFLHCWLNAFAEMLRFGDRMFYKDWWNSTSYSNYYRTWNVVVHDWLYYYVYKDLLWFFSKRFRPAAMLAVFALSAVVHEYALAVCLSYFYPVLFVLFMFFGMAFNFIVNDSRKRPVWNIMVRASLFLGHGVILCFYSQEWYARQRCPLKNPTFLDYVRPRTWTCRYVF
The assay is described as follows: Inhibition of fatty acyl CoA:cholesterol acyl transferase (ACAT), rat adrenal enzyme. It counts as biochemical. Particulars: for pIC50: several concentrations. The gist of the method: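 Enzyme source was the microsomal supernatant of rat adrenal homogenate (0.2M potassium phosphate, pH 7.4) with BSA, preincubated with compound (5.2 μg/ml final for single-point) for 10 min at 37° C. Then [14C]oleoyl CoA added, 10 min at 37° C. TLC-separated cholesteryl ester was counted; percent inhibition versus control, IC50 from several concentrations.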

[2] abbreviates: read-out: LS (liver sterol), percentage of control values.
Setting [3] is: read-out: SS (serum sterol), percentage of control values.
Setting [4] is: rat adrenal ACAT, final concentration 5.2 μg/ml, read-out: % Inhibition.

By inhibition is commonly meant the share of the control response that was lost under treatment. One may read the pIC50 as −log10 of the IC50, conventionally taken in molar units. A higher pIC50 goes with a low IC50.

SMILES strings stand for the structures. pIC50: −log10 of the molar value. Like-named read-outs stand apart in the source and are kept apart here.

Consider `CCCCc1ccc(CN(CCCCCCO)C(=O)Nc2c(Cl)cc(Cl)cc2Cl)cc1` [1-[(4-Butylphenyl)methyl]-1-(6-hydroxyhexyl)-3-(2,4,6-trichlorophenyl)urea], for which the response vs control in vivo at 0.03 % with cholesterol absorption (setting [2]) was determined as 32%; in the assay on cholesterol absorption (setting [3]) it was 35%. This compound showed an inhibition at 5.2 µg/mL in assay [1] of 90%.

Take `CC(C)(C)CCN(Cc1ccccc1)C(=O)Nc1ccc(F)cc1F` [1-(3,3-Dimethylbutyl)-1-benzyl-3-(2,4-difluorophenyl)urea]: the response vs control in vivo at 0.03 % is 70% in the assay with cholesterol absorption (setting [2]) and 71% in the assay on cholesterol absorption (setting [3]). The compound also registered an inhibition at 5.2 µg/mL in assay [1] of 90%.

`CCCCN(Cc1ccccc1)C(=O)Nc1cc(C)cc(C)c1` [1-Benzyl-1-( -n-butyl)-3-(3,5-dimethylphenyl)urea]: the response vs control in vivo at 0.03 % in the assay on cholesterol absorption (setting [2]) was 75%; with cholesterol absorption (setting [3]), 93%. Moreover, the inhibition at 5.2 µg/mL in assay [1] (setting [4]) is 94.2%.

For the compound `CCCCc1ccc(CN(CCCCC(C)(C)C)C(=O)Nc2ccc(Cl)cc2C)cc1` [1-(5,5-Dimethylhexyl)-1-[4-(n-butyl)benzyl]-3-(4-chloro-2-methylphenyl)urea], the response vs control in vivo at 0.03 % in the assay on cholesterol absorption (setting [2]) came to 34%; in the assay on cholesterol absorption (setting [3]), 42%. This compound also yielded an inhibition at 5.2 µg/mL in assay [1] of 90%.

Regarding `Cc1cc(Cl)ccc1NC(=O)N(CCC(C)(C)C)Cc1cccs1` [3-(4-Chloro-2-methylphenyl)-1-(3,3-dimethylbutyl)-1-(2-thienylmethyl)urea], the response vs control in vivo at 0.03 % was found to be 64% in the assay with cholesterol absorption (setting [2]) and 62% in the assay on cholesterol absorption (setting [3]). In assay [1], the inhibition at 5.2 µg/mL amounted to 90%.

For `CC(C)(C)CCN(Cc1ccc(CC(C)(C)C)cc1)C(=O)Nc1c(Cl)cc(Cl)cc1Cl` [1-(3,3-Dimethylbutyl)-1-[4-(2,2-dimethylpropyl)benzyl]-3-(2,4,6-trichlorophenyl)urea], the response vs control in vivo at 0.03 % in the assay with cholesterol absorption (setting [2]) stood at 15%; in the assay on cholesterol absorption (setting [3]), 32%. This compound had an inhibition at 5.2 µg/mL in assay [1] of 90%.

As for `CCCCCCCN(CCc1ccccc1)C(=O)Nc1ccc(C)cc1C` [1-(n-Heptyl)-1-(2-phenylethyl)-3-(2,4-dimethylphenyl)urea], the response vs control in vivo at 0.03 % with cholesterol absorption (setting [2]) came out at 36%; with cholesterol absorption (setting [3]), 57%. For the same compound, in assay [1] (setting [4]), the inhibition at 5.2 µg/mL worked out at 95.7%.

As to `CCCCCCCN(Cc1ccc(CCCC)cc1)C(=O)Nc1ccc(F)cc1F` [1-[(4-Butylphenyl)methyl]-1-(n-heptyl)-3-[2,4-difluorophenyl]urea], the figures for the response vs control in vivo at 0.03 % in the assay on cholesterol absorption (setting [2]) and with cholesterol absorption (setting [3]) were 19% and 35%, respectively. Also, in assay [1], 5.2 µg/mL produced 90% inhibition.

In the case of `CCCCCCCN(Cc1ccc(CCCC)cc1)C(=O)Nc1ccc(Cl)cc1C(F)(F)F` [1-(n-Heptyl)-1-(4-n-butylbenzyl)-3-(2-trifluoromethyl-4-chlorophenyl)urea], the response vs control in vivo at 0.03 % came to 47% with cholesterol absorption (setting [2]) and 63% with cholesterol absorption (setting [3]). The inhibition at 5.2 µg/mL in assay [1] amounted to 90%.

As for `CC(C)(C)CCN(Cc1cccs1)C(=O)Nc1c(Cl)cc(Cl)cc1Cl` [1-(3,3-Dimethylbutyl)-1-(2-thienylmethyl)-3-(2,4,6-trichlorophenyl)urea], the response vs control in vivo at 0.03 % in the assay on cholesterol absorption (setting [2]) turned out to be 56%; in the assay with cholesterol absorption (setting [3]), 58%. This compound returned an inhibition at 5.2 µg/mL in assay [1] of 90%.

Regarding `CCCCc1ccc(CN(CCCCCCCl)C(=O)Nc2ccc(Cl)cc2C)cc1` [1-[(4-Butylphenyl)methyl]-1-(6-chlorohexyl)-3-(4-chloro-2-methylphenyl)urea], the response vs control in vivo at 0.03 % with cholesterol absorption (setting [2]) is 35%; with cholesterol absorption (setting [3]), 46%. Testing at 5.2 µg/mL in assay [1] gave an inhibition of 90%.

For `CCCCCCCN(Cc1ccc(C(C)C)cc1)C(=O)Nc1c(F)cc(F)cc1F` [1-(n-Heptyl)-1-[4-(isopropyl)benzyl]-3-(2,4,6-trifluorophenyl)urea], the response vs control in vivo at 0.01 % with cholesterol absorption (setting [2]) was determined as 23%; in the assay on cholesterol absorption (setting [3]) it was 40%. This compound also had a pIC50 in assay [1] (rat adrenal ACAT) of 6.46.

For `CCCCOc1ccc(CN(Cc2cccs2)C(=O)Nc2cc(C)c(C)cc2C)cc1` [1-[(4-Butoxyphenyl)methyl]-1-(2-thienylmethyl)-3-(2,4,5-trimethylphenyl)urea], the response vs control in vivo at 0.03 % with cholesterol absorption (setting [2]) was found to be 16%; with cholesterol absorption (setting [3]), 41%. Besides, the inhibition at 5.2 µg/mL in assay [1] was found to be 90%.

With `CCCCc1ccc(CN(CCOCCO)C(=O)Nc2cc(C)c(C)cc2C)cc1` [1-[(4-Butylphenyl)methyl]-1-[2-(2-hydroxyethoxy)ethyl]-3-(2,4,5-trimethylphenyl)urea], the response vs control in vivo at 0.03 % in the assay on cholesterol absorption (setting [2]) is 76%; in the assay on cholesterol absorption (setting [3]), 100%. The inhibition at 5.2 µg/mL in assay [1] (setting [4]) was found to be 85.9%.

For the compound `CCCCCCCN(Cc1ccc(CCCC)cc1)C(=O)Nc1ccc(C)cc1C` [1-(n-Heptyl)-1-(4-n-butylbenzyl)-3-(2,4-dimethylphenyl)urea], the response vs control in vivo at 0.03 % with cholesterol absorption (setting [2]) came to 14%; with cholesterol absorption (setting [3]), 46%. Further, the inhibition at 5.2 µg/mL in assay [1] (setting [4]) is 94.8%.

As to `CCCCCCCOc1ccc(CN(CCCC)C(=O)Nc2c(C)cc(C)cc2C)cc1` [1-(n-Butyl)-1-(4-heptyloxybenzyl)-3-(2,4,6-trimethylphenyl)urea], the response vs control in vivo at 0.03 % turned out to be 31% in the assay with cholesterol absorption (setting [2]) and 66% in the assay with cholesterol absorption (setting [3]). Also, in assay [1], the inhibition at 5.2 µg/mL turned out to be 97.3%.

Turning to `CCCCCCCN(Cc1ccc(OCCCC)cc1)C(=O)Nc1ccc(C)cc1C` [1-(n-Heptyl)-1-(4-butyloxybenzyl)-3-(2,4-dimethylphenyl)urea], the response vs control in vivo at 0.03 % in the assay with cholesterol absorption (setting [2]) worked out at 22%; in the assay on cholesterol absorption (setting [3]), 26%. The inhibition at 5.2 µg/mL in assay [1] (setting [4]) came to 94.6%.

On to `Cc1cc(Cl)cc(C)c1NC(=O)N(CCC(C)C)Cc1ccc(C(C)C)cc1` [1-(Isopentyl)-1-[4-(isopropyl)benzyl]-3-(4-chloro-2,6-dimethylphenyl)urea], for which the response vs control in vivo at 0.03 % in the assay on cholesterol absorption (setting [2]) and in the assay on cholesterol absorption (setting [3]) was 23% throughout. The pIC50 in assay [1] (rat adrenal ACAT) is 6.27.

On to `CCCCCCCN(Cc1ccco1)C(=O)Nc1cc(C)c(C)cc1C` [1-(2-Furanylmethyl)-1-heptyl-3-(2,4,5-trimethylphenyl)urea], for which the response vs control in vivo at 0.03 % in the assay with cholesterol absorption (setting [2]) came out at 38%; in the assay on cholesterol absorption (setting [3]), 44%. Further, the inhibition at 5.2 µg/mL in assay [1] (setting [4]) was found to be 93.8%.

With `CCCCc1ccc(CN(CCCCC(C)(C)C)C(=O)Nc2ccc(F)cc2F)cc1` [1-(5,5-Dimethylhexyl)-1-[4-(n-butyl)benzyl]-3-(2,4-difluorophenyl)urea], the figures for the response vs control in vivo at 0.03 % in the assay on cholesterol absorption (setting [2]) and in the assay on cholesterol absorption (setting [3]) were 58% and 59%, respectively. Besides, testing at 5.2 µg/mL in assay [1] gave an inhibition of 90%.

Consider `Cc1ccc(CCN(Cc2cccc(Cl)c2)C(=O)Nc2ccc(C)cc2C)cc1` [1-[2-(4-Methylphenyl)ethyl]-1-(3-chlorobenzyl)-3-(2,4-dimethylphenyl)urea], for which the response vs control in vivo at 0.03 % in the assay on cholesterol absorption (setting [2]) is 20%; with cholesterol absorption (setting [3]), 50%. For the same compound, the inhibition at 5.2 µg/mL in assay [1] (setting [4]) is 67.6%.

As to `Cc1cc(C)c(NC(=O)N(Cc2ccccc2)C(Cc2ccccc2)c2ccc(OCc3ccccc3)cc2)c(C)c1` (stereo not drawn) [1-Benzyl-1-[2-phenyl-1-(4-benzyloxyphenyl)ethyl]-3-(2,4,6-trimethylphenyl)urea], the response vs control in vivo at 0.03 % amounted to 49% with cholesterol absorption (setting [2]) and 60% in the assay with cholesterol absorption (setting [3]). The compound further had an inhibition at 5.2 µg/mL in assay [1] of 90%.

For `O=C(Nc1cc(Cl)c(Cl)cc1Cl)N(Cc1ccc(Cl)cc1)Cc1cccc2ccccc12` [1-(4-Chlorobenzyl)-1-(1-naphthylmethyl)-3-(2,4,5-trichlorophenyl)urea], the response vs control in vivo at 0.03 % in the assay on cholesterol absorption (setting [2]) was found to be 97%; with cholesterol absorption (setting [3]) it was 84%. The inhibition at 5.2 µg/mL in assay [1] (setting [4]) was 86%.

As for `CCCCc1ccc(CN(Cc2ccccc2)C(=O)Nc2c(C)cc(C)cc2C)cc1` [1-Benzyl-1-(4-n-butylbenzyl)-3-(2,4,6-trimethylphenyl)urea], the response vs control in vivo at 0.03 % was 13% in the assay on cholesterol absorption (setting [2]) and 53% in the assay with cholesterol absorption (setting [3]). Besides, the inhibition at 5.2 µg/mL in assay [1] (setting [4]) was found to be 92.8%.

As for `CCCCCCCN(Cc1ccc(CCCC)cc1)C(=O)Nc1ccc(C(=O)OCC)cc1` [1-(n-Heptyl)-1-(4-n-butylbenzyl)-3-(4-carboethoxyphenyl)urea], the response vs control in vivo at 0.03 % was found to be 84% in the assay with cholesterol absorption (setting [2]) and 88% in the assay with cholesterol absorption (setting [3]). The inhibition at 5.2 µg/mL in assay [1] (setting [4]) is 92.4%.

The values above are taken from patent US4623662A, “Antiatherosclerotic ureas and thioureas” (American Cyanamid Company, priority 1985, dated 1986).
